From the supplement of paper PMC8967900

Tests used:
Assay in all cases: selective drug sensitivity score (sDSS, relative to normal bone marrow) (sDSS (score)); higher = more potent and effective on the cell line relative to normal bone marrow cells
Details in all cases: 72 h
[1] = test system: COG-LL-319h
[2] = test system: TANOUE
[3] = test system: KARPAS-45
[4] = test system: ALL-PO
[5] = test system: MOLT-4
[6] = test system: COG-LL-355h
[7] = test system: SEM cells
[8] = test system: HPB-ALL
[9] = test system: REH
[10] = test system: PEER
[11] = test system: SUP-B15
[12] = test system: COG-LL-317
[13] = test system: MHH-CALL-3
[14] = test system: NALM-6
[15] = test system: LC4-1
[16] = test system: KOPN-8
[17] = test system: JURKAT
[18] = test system: COG-LL-402h
[19] = test system: NALM-16
[20] = test system: CCRF-CEM
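Also: ALL cell lines in 384-well plates, five doses spanning 10,000-fold, each plate scaled between vehicle and 100 µmol/L benzalkonium chloride controls, sDSS an adapted area-under-curve metric.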

Structure (SMILES) | selective drug sensitivity score [1] | selective drug sensitivity score [2] | selective drug sensitivity score [3] | selective drug sensitivity score [4] | selective drug sensitivity score [5] | selective drug sensitivity score [6] | selective drug sensitivity score [7] | selective drug sensitivity score [8] | selective drug sensitivity score [9] | selective drug sensitivity score [10] | selective drug sensitivity score [11] | selective drug sensitivity score [12] | selective drug sensitivity score [13] | selective drug sensitivity score [14] | selective drug sensitivity score [15] | selective drug sensitivity score [16] | selective drug sensitivity score [17] | selective drug sensitivity score [18] | selective drug sensitivity score [19] | selective drug sensitivity score [20]
CC(C)C[C@H](NC(=O)[C@H](CCc1ccccc1)NC(=O)CN1CCOCC1)C(=O)N[C@@H](Cc1ccccc1)C(=O)N[C@@H](CC(C)C)C(=O)[C@@]1(C)CO1 [Carfilzomib] (top concentration 1000 nM) | 2.56 | -8.24 | 0.66 | 4.76 | 0.86 | 5.06 | 8.56 | 3.96 | 3.16 | 2.56 | 4.56 | 1.06 | 2.86 | 1.06 | 2.36 | 1.46 | -4.04 | 2.86 | -3.64 | 4.86
O=C(c1ccc(F)c(F)c1Nc1ccc(I)cc1F)N1CC(O)([C@@H]2CCCCN2)C1 [Cobimetinib] (top concentration 1000 nM) | -1.28 | -3.68 | -3.68 | 0.92 | -3.68 | 5.02 | -2.48 | -3.68 | -3.68 | -2.78 | 6.62 | -3.68 | 6.22 | 2.62 | -0.68 | 2.12 | -3.68 | -0.98 | -1.38 | -3.58
COc1c(OCCCN2CCOCC2)ccc2c1N=C(NC(=O)c1cnc(N)nc1)N1CCN=C21 [Copanlisib] (top concentration 1000 nM) | 3.18 | -6.52 | 3.38 | 8.28 | 4.48 | 12.2 | 4.18 | 0.48 | 8.28 | -5.82 | -2.12 | 6.08 | -0.62 | 8.18 | -4.22 | 4.98 | -3.62 | 8.88 | 2.58 | 10.2
Cn1c(=O)n(-c2ccc(C(C)(C)C#N)cc2)c2c3cc(-c4cnc5ccccc5c4)ccc3ncc21 [Dactolisib] (top concentration 1000 nM) | -7.44 | -2.54 | 6.56 | 4.56 | 5.76 | 3.46 | 10.4 | 1.36 | 12.9 | 5.06 | 10.3 | 2.26 | 3.26 | 6.36 | 5.16 | 15.1 | 7.26 | 5.36 | 0.86 | 12.9
O=C(/C=C/c1cccnc1)NCCCCC1CCN(C(=O)c2ccccc2)CC1 [Daporinad] (top concentration 1000 nM) | 9.76 | 7.66 | 18.4 | 13.8 | 5.86 | 11 | 17.2 | 7.96 | 15.5 | 8.76 | 19.4 | 17.7 | 14.6 | 15.6 | 14.2 | 19.8 | 8.76 | 16.4 | 2.96 | 8.56
CC(=O)N(O)CCCCCNC(=O)CCC(=O)N(O)CCCCCNC(=O)CCC(=O)N(O)CCCCCN [Deferoxamine] (top concentration 10000 nM) | 7.86 | 3.46 | 5.16 | 2.56 | 3.56 | 1.46 | 2.66 | 4.06 | 2.46 | 2.16 | 4.76 | 18.4 | -0.54 | 5.06 | 1.76 | 10.4 | 2.26 | 5.76 | 4.66 | 6.86
Cc1cc(Nc2cc(N3CCN(C)CC3)nc(/C=C/c3ccccc3)n2)n[nH]1 [ENMD-2076] (top concentration 10000 nM) | 5.54 | -9.16 | 5.14 | 10.3 | 5.74 | 4.04 | 15 | 4.44 | 4.14 | 7.14 | 4.74 | 5.14 | -2.76 | 5.44 | 7.64 | 8.34 | 3.64 | 4.24 | -0.06 | 5.04
Cc1cnc(Nc2ccc(OCCN3CCCC3)cc2)nc1Nc1cccc(S(=O)(=O)NC(C)(C)C)c1 [Fedratinib] (top concentration 10000 nM) | 4.64 | -7.06 | 0.04 | 3.24 | -2.86 | 3.84 | 2.74 | 0.14 | -2.76 | -0.16 | -0.66 | -3.36 | 2.54 | -1.26 | -0.36 | -0.76 | -2.06 | 1.24 | -2.16 | -1.76
COc1ccc(-c2nc(N3CCOCC3)c3sc(CN(C)c4ncc(C(=O)NO)cn4)cc3n2)cn1 [Fimepinostat (CUDC-907)] (top concentration 10000 nM) | -3.82 | -14.8 | 9.58 | 6.48 | 5.28 | 7.28 | 8.68 | -4.02 | 2.78 | 1.98 | 10.7 | 7.58 | 10.9 | 8.68 | 8.68 | 10.9 | 0.98 | 10.9 | 1.78 | 6.88
